From ChEMBL document CHEMBL3286182, “4-aminoquinolone piperidine amides: noncovalent inhibitors of DprE1 with long residence time and potent antimycobacterial activity” (J Med Chem, 2014)
Converted amounts (≈) assume the structure as drawn.

Experiments:
Type in all cases: functional
[1] = test system: Mycobacterium tuberculosis; assay: Antimycobacterial activity against BTZ043-resistant Mycobacterium tuberculosis over expressing DprE1 C387S mutant after 5 days by standard microdilution method
[2] = test system: Mycobacterium tuberculosis; assay: Antimycobacterial activity against TMC207R-resistant Mycobacterium tuberculosis clone 8.1 over expressing DprE1 mutant after 5 days by standard microdilution method
[3] = test system: Mycobacterium tuberculosis; assay: Antimycobacterial activity against moxifloxacin-resistant Mycobacterium tuberculosis clone 4.1 over expressing DprE1 mutant after 5 days by standard microdilution method
[4] = test system: Mycobacterium tuberculosis; assay: Antimycobacterial activity against Mycobacterium tuberculosis over expressing DprE1 Y314H mutant after 5 days by standard microdilution method

| Compound | MIC [1] [µM] | MIC [2] [µM] | MIC [3] [µM] | MIC [4] [µM] |
| --- | --- | --- | --- | --- |
| COc1nc2ccc(Br)cc2cc1[C@@H](c1ccccc1)[C@@](O)(CCN(C)C)c1cccc2ccccc12 [BEDAQUILINE] | 0.4 (≈ 0.222 µg/mL) | 50 (≈ 27.8 µg/mL) | 1.6 (≈ 0.889 µg/mL) |  |
| Cn1ncc(C(=O)N2[C@@H]3CC[C@H]2C[C@@H](Nc2cc(=O)[nH]c4ccc(F)cc24)C3)c1Cl | 1.56 (≈ 0.671 µg/mL) |  |  | <0.39 |
| NNC(=O)c1ccncc1 [ISONIAZID] | 0.45 (≈ 0.0617 µg/mL) | 0.23 (≈ 0.0315 µg/mL) | 0.45 (≈ 0.0617 µg/mL) |  |
| C[C@H]1C[C@H](Nc2cc(=O)[nH]c3cc(F)c(F)cc23)CCN1C(=O)c1cnn(C)c1Cl | 6.25 (≈ 2.72 µg/mL) |  |  | 0.78 (≈ 0.34 µg/mL) |
| C[C@H]1COC2(CCN(c3nc(=O)c4cc(C(F)(F)F)cc([N+](=O)[O-])c4s3)CC2)O1 [BTZ-043] | 25 (≈ 10.8 µg/mL) | 0.002 (≈ 0.000863 µg/mL) | 0.003 (≈ 0.00129 µg/mL) |  |
| Cn1ncc(C(=O)N2CCC(Nc3cc(=O)[nH]c4ccccc34)CC2)c1Cl | 100 (≈ 38.6 µg/mL) | 3.1 (≈ 1.2 µg/mL) | 1.6 (≈ 0.617 µg/mL) | 100 (≈ 38.6 µg/mL) |
| COc1c(N2C[C@@H]3CCCN[C@@H]3C2)c(F)cc2c(=O)c(C(=O)O)cn(C3CC3)c12 [MOXIFLOXACIN] | 0.08 (≈ 0.0321 µg/mL) |  |  |  |
| Cn1ncc(C(=O)N2CCC(Nc3cc(=O)[nH]c4ccc(F)cc34)CC2)c1Cl | 25 (≈ 10.1 µg/mL) | 1.6 (≈ 0.646 µg/mL) | 1.6 (≈ 0.646 µg/mL) | 25 (≈ 10.1 µg/mL) |
| Cn1ncc(C(=O)N2CCC(Nc3cc(=O)[nH]c4cc(F)c(F)cc34)CC2)c1Cl | 3.12 (≈ 1.32 µg/mL) | 0.2 (≈ 0.0844 µg/mL) | 0.2 (≈ 0.0844 µg/mL) | 50 (≈ 21.1 µg/mL) |
| Cc1onc(C(=O)N2CCC(Nc3cc(=O)n(C)c4cc(F)c(F)cc34)CC2)c1C | 6.25 (≈ 2.6 µg/mL) |  |  | <25 |
